Laboratory results as given in article PMC6296572 (Journal of Genetic Engineering & Biotechnology, 2017).

Tested on: laccase from Trichoderma harzianum strain HZN10 (free, purified)
Experiment: ABTS oxidation, absorbance at […] nm
Format: biochemical
Conditions: free enzyme; ABTS 0.2-2.4 mM; standard assay 0.1 M sodium phosphate pH 6, 25 °C

Question: For `CCn1c(=NN=c2sc3cc(S(=O)(=O)O)ccc3n2CC)sc2cc(S(=O)(=O)O)ccc21` [ABTS, 2,2′-azino-bis(3-ethylbenzothiazoline-6-sulfonic acid)], which Km is on record?
Answer: 500 µM
